Tested on: 293T cells
Test: Cytotoxicity test (CCK-8 cell viability) in 293T cells
Format: cell-based, human
Details: 24 hours co-incubation, 293T cell line, % of control
Protocol: Human undifferentiated neuroblastoma cell line SH-SY5Y and human embryonic kidney cell line (HEK)-293T were purchased from Korean Cell Line Bank (Korea) and Takara (Japan), respectively. Cells were grown in HyClone Minimal Essential Medium (MEM) and Dulbecco's Modified Eagle Medium (DMEM), respectively, supplemented with 10% (v/v) fetal bovine serum (FBS), penicillin (100 U/mL), and streptomycin ([…]). Cells were maintained in a humidified atmosphere of 95% air and 5% CO2 at 37° C. Cells were passaged 10 times at maximum. Cells were dissociated using 0.05% trypsin-EDTA solution and the cells were seeded in new culture dishes for maintenance.
To examine the cytotoxicity of compounds described herein in human cell lines, SH-SY5Y and 293T cells were used. Approximately 8,000 cells (for 293T) and 15,000 cells (for SH-SY5Y) were plated per well of a 96-well plate (SPL Life Sciences Co., Ltd., Pocheon, Korea). After incubating at 37° C. for 24 hours in a humidified atmosphere containing 5% CO2, the culture medium was replaced by a series of concentrations of test compounds diluted in the corresponding culture medium. The time of co-incubation was 24 hours and six replicates were made for each measurement. Finally, 10 μL of CCK-8 reagent (Dojindo Laboratories, Rockville, MD) was added to each well, and after incubation at 37° C. for 3 minutes, the OD at 450 nm was measured using a multifunction microplate reader (Tecan Infinite M200 Pro). These measurements were compared to that of a control and expressed as a percentage of the control to calculate cell viability. The IC50 value was calculated using SPSS software. To do this, the absorbance of the blank wells with only growth medium is subtracted from the values or the wells with cells. The readout value of background (vehicle) was set as a 100% viability, and then the percent viability for each test solution was calculated.
Cell viability (%)=[(As-Ab)/(Ac-Ab)]×100
The data was presented as the mean value and standard error of the mean (S.E.M.). Statistical analysis was performed with the one-way ANOVA with Tukey's post hoc test (GraphPad Prism 5 software package, version 5.02, GraphPad Software Inc. USA). Significance was accepted at p<0.05.

Row | SMILES | Cell viability test results (CCK) 10 uM [%<] | Cell viability test results (CCK) 100 uM [%<]
1 | C[C@H]1CC[C@@H](C(=O)O)CN1C(=O)c1ccc(F)cc1Cl [BnH12011, (3R,6S)-1-(2-chloro-4-fluorobenzoyl)-6-methylpiperidine-3-carboxylic acid] | 95 | 95
2 | O=C(O)[C@@H]1CCCN1C(=O)Cc1ccc(F)cc1Cl [BnH12013, (2-(2-chloro-4-fluorophenyl)acetyl)-L-proline] | 99 | 99
3 | O=C(O)[C@@H]1CCCN(C(=O)Cc2ccc(F)cc2Cl)C1 [BnH12004, (R)-1-(2-(2-chloro-4-fluorophenyl)acetyl)piperidine-3-carboxylic acid] | 95 | 85
4 | C[C@H]1CC[C@@H](C(=O)O)CN1C(=O)Cc1cccs1 [BnH12034, (3R,6S)-6-methyl-1-(2-(thiophen-2-yl)acetyl)piperidine-3-carboxylic acid] | 90 | 85
5 | C[C@H]1CC[C@@H](C(=O)O)CN1C(=O)Cc1ncccn1 [BnH12041, (3R,6S)-6-methyl-1-(2-(pyrimidin-2-yl)acetyl)piperidine-3-carboxylic acid] | 90 | 70
6 | C[C@H]1CC[C@@H](C(=O)O)CN1C(=O)Cc1ccc(Cl)c(Cl)c1 [BnH12028, (3R,6S)-1-(2-(3,4-dichlorophenyl)acetyl)-6-methylpiperidine-3-carboxylic acid] | 90 | 80
7 | C[C@H]1CC[C@@H](C(=O)O)CN1C(=O)Cc1ccc(Cl)cc1 [BnH12023, (3R,6S)-1-(2-(4-chlorophenyl)acetyl)-6-methylpiperidine-3-carboxylic acid] | 95 | 80
8 | C[C@H]1CC[C@@H](C(=O)O)CN1C(=O)Cc1ccco1 [BnH12035, (3R,6S)-1-(2-(furan-2-yl)acetyl)-6-methylpiperidine-3-carboxylic acid] | 90 | 85
9 | Cc1ccc(CC(=O)N2C[C@H](C(=O)O)CC[C@@H]2C)cc1 [BnH12024, (3R,6S)-6-methyl-1-(2-(p-tolyl)acetyl)piperidine-3-carboxylic acid] | 99 | 99
10 | C[C@H]1CC[C@@H](C(=O)O)CN1C(=O)Cc1ccc(F)cc1 [BnH12031, (3R,6S)-1-(2-(4-fluorophenyl)acetyl)-6-methylpiperidine-3-carboxylic acid] | 90 | 75
11 | COC(=O)[C@@H]1CC[C@H](C)N(C(=O)Cc2ccc(F)cc2Cl)C1 [BnH12020, Methyl (3R,6S)-1-(2-(2-chloro-4-fluorophenyl)acetyl)-6-methylpiperidine-3-carboxylate] | 95 | 95
12 | C[C@H]1CC[C@@H](C(=O)O)CN1C(=O)Cc1ccc(N(C)C)cc1 [BnH12076, (3R,6S)-1-(2-(4-(dimethylamino)phenyl)acetyl)-6-methylpiperidine-3-carboxylic acid] | 95 | 95
13 | CCC(=O)N1C[C@H](C(=O)O)CC[C@@H]1C [BnH12008, (3R,6S)-6-methyl-1-propionylpiperidine-3-carboxylic acid] | 95 | 90
14 | COc1ccc(CC(=O)N2C[C@H](C(=O)O)CC[C@@H]2C)cn1 [BnH12075, (3R,6S)-1-(2-(6-methoxypyridin-3-yl)acetyl)-6-methylpiperidine-3-carboxylic acid] | 99 | 99
15 | Cc1cccc(CC(=O)N2C[C@H](C(=O)O)CC[C@@H]2C)c1 [BnH12030, (3R,6S)-6-methyl-1-(2-(m-tolyl)acetyl)piperidine-3-carboxylic acid] | 95 | 85
16 | C[C@H]1CC[C@@H](C(=O)O)CN1C(=O)Cc1cncnc1 [BnH12040, (3R,6S)-6-methyl-1-(2-(pyrimidin-5-yl)acetyl)piperidine-3-carboxylic acid] | 85 | 80
17 | O=C(O)[C@H]1CCCN1C(=O)Cc1ccc(F)cc1Cl [BnH12012, (2-(2-chloro-4-fluorophenyl)acetyl)-D-proline] | 95 | 90
18 | C[C@H]1CC[C@@H](C(=O)O)CN1C(=O)Cc1ccc(Br)cc1 [BnH12032, (3R,6S)-1-(2-(4-bromophenyl)acetyl)-6-methylpiperidine-3-carboxylic acid] | 99 | 95
19 | O=C(NO)[C@H]1CCCN1C(=O)Cc1ccc(F)cc1Cl [BnH12014, (R)-1-(2-(2-chloro-4-fluorophenyl)acetyl)-N-hydroxypyrrolidine-2-carboxamide] | 99 | 90
20 | CCC1CCC(C(=O)O)CN1C(=O)Cc1ccc(F)cc1Cl (stereo not drawn) [BnH12094, 1-(2-(2-chloro-4-fluorophenyl)acetyl)-6-ethylpiperidine-3-carboxylic acid] | 80 | 70
21 | C[C@@H]1CC[C@H](C(=O)O)CN1C(=O)Cc1ccccc1 [BnH12062, (3S,6R)-6-methyl-1-(2-phenylacetyl)piperidine-3-carboxylic acid] | 85 | 75
22 | O=C(NO)[C@@H]1CCCN1C(=O)c1ccccc1 [BnH12019, (S)-1-Benzoyl-N-hydroxypyrrolidine-2-carboxamide] | 99 | 90
23 | C[C@H]1CC[C@@H](C(N)=O)CN1C(=O)Cc1ccc(F)cc1Cl [BnH12022, (3R,6S)-1-(2-(2-chloro-4-fluorophenyl)acetyl)-6-methylpiperidine-3-carboxamide] | 99 | 99
24 | C[C@H]1CC[C@@H](C(=O)O)CN1C(=O)Cc1ccc(C(C)(C)C)cc1 [BnH12029, (3R,6S)-1-(2-(4-(tert-butyl)phenyl)acetyl)-6-methylpiperidine-3-carboxylic acid] | 99 | 80

— patent US20250188032A1, “NITROGEN-CONTAINING HETEROCYCLIC COMPOUNDS AND USES THEREOF” (BNH RESEARCH CO., LTD., priority 2022, published 2025)
